We go through 27 molecules from the supplement of paper PMC12613149.

A short description of data set [1]: collision cross section (TIMS, N2 drift gas) of the primary ion; higher = larger gas-phase ion size.
Data set [2] in a line: reversed-phase LC retention time (C18, 15 min MeOH gradient); higher = more hydrophobic / later elution.
Where [3] appears, read: ionization mode: ESI+, ion species: [M+H]+.
Where [4] appears, read: ionization mode: ESI-, ion species: [M-H]-.

Each structure is given as a SMILES string.

`CCOC1Oc2ccc(OS(C)(=O)=O)cc2C1(C)C` (stereo unspecified) [Ethofumesate] came in with a collision cross section in data set [1] (setting [3]) of 166.62 Å². Further, the “reversed-phase LC retention time” value in data set [2] (setting [3]) amounted to 13.8 min.
For `CCOC(=O)c1ccc(N(C)C)cc1` [Ethyl 4-(dimethylamino)benzoate], in that order: 148.66 Å² and 14.2 min.
Molecule `CCOC(=O)c1ccc(O)cc1` [Ethylparaben] yielded a collision cross section in data set [1] (setting [4]) of 133.39 Å². Moreover, the “reversed-phase LC retention time” value in data set [2] (setting [4]) worked out at 11.3 min.
As for `COc1cc(C2c3cc4c(cc3C(OC3OC5COC(C)OC5C(O)C3O)C3COC(=O)C23)OCO4)cc(OC)c1O` (stereo unspecified) [Etoposide], the collision cross section in data set [1] (setting [3]) worked out at 250.37 Å². For the same molecule, the “reversed-phase LC retention time” value in data set [2] (setting [3]) came to 11.6 min.
As for `COc1cc(C2c3cc4c(cc3C(OC3OC5COC(C)OC5C(O)C3O)C3COC(=O)C23)OCO4)cc(OC)c1O` (stereo unspecified) [Etoposide_1], the collision cross section in data set [1] (setting [4]) came out at 222.47 Å². In addition, in data set [2] (setting [4]), the “reversed-phase LC retention time” value amounted to 11.9 min.
Molecule `COc1cc(C2c3cc4c(cc3C(OC3OC5COC(C)OC5C(O)C3O)C3COC(=O)C23)OCO4)cc(OC)c1O` (stereo unspecified) [Etoposide_2] gave a collision cross section in data set [1] (setting [4]) of 241.7 Å². For the same molecule, the “reversed-phase LC retention time” value in data set [2] (setting [4]) was 11.7 min.
In data set [1] (setting [3]), `C=C1C[C@@H]2[C@H](CC[C@]3(C)C(=O)CC[C@@H]23)[C@@]2(C)C=CC(=O)C=C12` [Exemestane] showed a collision cross section of 173.31 Å². The “reversed-phase LC retention time” value in data set [2] (setting [3]) was 13.9 min.
For `CSC1=N[C@@](C)(c2ccccc2)C(=O)N1Nc1ccccc1` [Fenamidone], in that order: 173.13 Å² and 14.1 min.
As to `CC1(C(=O)Nc2ccc(O)c(Cl)c2Cl)CCCCC1` [Fenhexamid], the collision cross section is listed as 166.46 Å² in data set [1] (setting [3]) and 172.09 Å² in data set [1] (setting [4]). Also, the “reversed-phase LC retention time” value in data set [2] (setting [3]) stood at 14.8 min; in data set [2] (setting [4]), 14.6 min.
For `CC(Oc1ccc(Oc2nc3ccc(Cl)cc3o2)cc1)C(=O)O` (stereo unspecified) [Fenoxaprop-P], in that order: 181.01 Å², 189.16 Å², 15.3 min and 13.9 min.
In data set [1] (setting [3]), `CCOC(=O)NCCOc1ccc(Oc2ccccc2)cc1` [Fenoxycarb] displayed a collision cross section of 180.55 Å². The “reversed-phase LC retention time” value in data set [2] (setting [3]) stood at 15.2 min.
As for `CC(Cc1ccc(C(C)(C)C)cc1)CN1CCCCC1` (stereo unspecified) [Fenpropidin], the collision cross section in data set [1] (setting [3]) was 166.93 Å². For the same molecule, the “reversed-phase LC retention time” value in data set [2] (setting [3]) was 13.6 min.
Regarding `CC(Cc1ccc(C(C)(C)C(=O)O)cc1)CN1CC(C)OC(C)C1` (stereo unspecified) [Fenpropimorph acid], the collision cross section in data set [1] (setting [3]) was found to be 177.46 Å²; in data set [1] (setting [4]) it was 188.8 Å². Moreover, the “reversed-phase LC retention time” value was found to be 10.8 min in data set [2] (setting [3]) and 14.3 min in data set [2] (setting [4]).
`CC(Cc1ccc(C(C)(C)C)cc1)CN1C[C@@H](C)O[C@@H](C)C1` (stereo partly specified) [Fenpropimorph]: in data set [1] (setting [3]), the collision cross section is 174.32 Å². For the same molecule, the “reversed-phase LC retention time” value in data set [2] (setting [3]) is 13.8 min.
In data set [1] (setting [3]), `Cc1nn(C)c(Oc2ccccc2)c1/C=N/OCc1ccc(C(=O)OC(C)(C)C)cc1` [Fenpyroximate] gave a collision cross section of 203.95 Å². Also, in data set [2] (setting [3]), the “reversed-phase LC retention time” value worked out at 17.5 min.
Consider `COP(=S)(OC)Oc1ccc(SC)c(C)c1` [Fenthion], for which the collision cross section in data set [1] (setting [3]) is given as 160.76 Å². The “reversed-phase LC retention time” value in data set [2] (setting [3]) was 14.1 min.
Molecule `CN(C)C(=O)Nc1ccccc1` [Fenuron] gave a collision cross section in data set [1] (setting [3]) of 132.76 Å². Besides, in data set [2] (setting [3]), the “reversed-phase LC retention time” value is 8.82 min.
As for `CC(C)(C(=O)O)c1ccc(C(O)CCCN2CCC(C(O)(c3ccccc3)c3ccccc3)CC2)cc1` (stereo unspecified) [Fexofenadine], the results for the collision cross section in data set [1] (setting [3]) and in data set [1] (setting [4]) were 223.95 Å² and 224.37 Å², respectively. Further, the “reversed-phase LC retention time” value in data set [2] (setting [3]) stood at 12.8 min; in data set [2] (setting [4]), 14.2 min.
For `CC(C)(C)NC(=O)[C@H]1CC[C@H]2[C@@H]3CC[C@H]4NC(=O)C=C[C@]4(C)[C@H]3CC[C@]12C` [Finasteride], the collision cross section in data set [1] (setting [3]) is 203.71 Å²; in data set [1] (setting [4]), 198.56 Å². Also, the “reversed-phase LC retention time” value in data set [2] (setting [3]) amounted to 14.6 min; in data set [2] (setting [4]), 15 min.
On to `N#Cc1nn(-c2c(Cl)cc(C(F)(F)F)cc2Cl)c(N)c1C(F)(F)F` [Fipronil desulfinyl], for which, in data set [1] (setting [4]), the collision cross section is 168.16 Å². Besides, the “reversed-phase LC retention time” value in data set [2] (setting [4]) worked out at 15.4 min.
For `N#Cc1nn(-c2c(Cl)cc(C(F)(F)F)cc2Cl)c(N)c1SC(F)(F)F` [Fipronil sulfide], in that order: 173.94 Å² and 15.8 min.
`N#Cc1nn(-c2c(Cl)cc(C(F)(F)F)cc2Cl)c(N)c1S(=O)(=O)C(F)(F)F` [Fipronil sulfone]: the collision cross section in data set [1] (setting [4]) is reported as 178.27 Å². The “reversed-phase LC retention time” value in data set [2] (setting [4]) was 16.1 min.
For `N#Cc1nn(-c2c(Cl)cc(C(F)(F)F)cc2Cl)c(N)c1S(=O)C(F)(F)F` (stereo unspecified) [Fipronil], in that order: 177.2 Å² and 15.6 min.
The molecule `N#CCNC(=O)c1cnccc1C(F)(F)F` [Flonicamid] came in with a collision cross section in data set [1] (setting [3]) of 149.83 Å². Also, the “reversed-phase LC retention time” value in data set [2] (setting [3]) stood at 7.31 min.
In turn, `Cc1cc(C(F)(C(F)(F)F)C(F)(F)F)ccc1NC(=O)c1cccc(I)c1C(=O)NC(C)(C)CS(C)(=O)=O` [Flubendiamide] displayed a collision cross section in data set [1] (setting [4]) of 222.96 Å². Moreover, the “reversed-phase LC retention time” value in data set [2] (setting [4]) amounted to 15.8 min.
On to `OC(Cn1cncn1)(Cn1cncn1)c1ccc(F)cc1F` [Fluconazole], for which the collision cross section in data set [1] (setting [3]) is on record as 166.92 Å²; in data set [1] (setting [4]) it was 158.78 Å². The “reversed-phase LC retention time” value came out at 9.38 min in data set [2] (setting [3]) and 9.54 min in data set [2] (setting [4]).
Consider `N#Cc1c[nH]cc1-c1cccc2c1OC(F)(F)O2` [Fludioxonil], for which the collision cross section in data set [1] (setting [4]) came out at 145.03 Å². In addition, in data set [2] (setting [4]), the “reversed-phase LC retention time” value was found to be 14.4 min.
